Assay: Phase I study: toxicity graded with NCI common toxicity criteria in patients
Format: in vivo, human
Source text: Fostriecin (CI-920) is a topoisomerase (topo) II catalytic activity inhibitor (Boritzki et al, 1988) (Figure 1). This novel class of topo II-targeting drugs is considered of potential value for treatment of patients with tumours resistant to classic topo II poisons, including anthracyclines and podophyllotoxins (Cummings and Smyth, 1993). The nuclear enzyme topo II is essential for the regulation of DNA conformation (reviewed in Osheroff et al, 1991). Central in its action is the formation of a complex with DNA. Stabilization of this complex by topo II poisons induces DNA damage and cell death (Froelich-Ammon and Osheroff, 1995). Decreased complex formation due to decreased topo II levels is considered to be an important mechanism of tumour-resistance to topo II poisons (Beck and Danks, 1991). The topo II catalytic inhibitor fostriecin is expected to have increased activity against tumour cells with low topo II levels and this was confirmed in in vitro studies (De Jong et al, 1991). […] Because of increased toxi- city of fostriecin in dogs compared to mice, a dose below one-third of the one-tenth mouse equivalent LD10, 2 mg m-2 day-1, was chosen as starting dose in humans (Clinical Brochure Fostriecin, 1991). […] We also performed an analysis of the human pharmacokinetics of fostriecin and ex vivo experiments to investigate if the plasma drug concentrations achieved were sufficient to inhibit a tenipo- side-resistant tumour cell line. The maximum tolerated dose (MTD) of fostriecin could not be established because drug supply was stopped prematurely. However, results of this study may provide a basis for continued clinical development of this agent. PATIENTS AND METHODS Patient selection, drug administration and evaluation Patient eligibility criteria were: histologically confirmed diagnosis of a solid tumour, no longer amenable to established forms of treatment; age 18-75 years; Eastern Cooperative Oncology Group (ECOG) performance status 2; life expectancy 12 weeks; no Phase I and pharmacokinetic study of the topoisomerase II catalytic inhibitor fostriecin RS de Jong1, NH Mulder1, DRA Uges2, DTh Sleijfer1, FJP Hoppener4, HJM Groen3, PHB Willemse1, WTA van der Graaf1 and EGE de Vries1 Departments of 1Medical Oncology, 2Pharmacy and Toxicology, and 3Pulmonary Diseases, University Hospital Groningen, The Netherlands; 4EORTC New Drug Development Office, Amsterdam, The Netherlands Summary We conducted a phase I and pharmacokinetic study of the topoisomerase II catalytic inhibitor fostriecin. Fostriecin was administered intravenously over 60 min on days 1-5 at 4-week intervals. Dose was escalated from 2 mg m-2 day-1 to 20 mg m-2 day-1 in 20 patients. Drug pharmacokinetics was analysed with high performance liquid chromatography with UV-detection. Plasma collected during drug administration was tested in vitro for growth inhibition of a teniposide-resistant small-cell lung cancer (SCLC) cell line. The predominant toxicities were elevated liver transaminases (maximum common toxicity criteria (CTC) grade 4) and serum creatinine (maximum CTC grade 2). […] Duration of elevated alanine-amino transferase (ALT) was dose-limiting in one patient at 20 mg m-2. Other frequent toxicities were grade 1-2 nausea/vomiting, fever and mild fatigue. […] A metabolite, most probably dephosphorylated fostriecin, was detected in plasma and urine. […] However, further escalation seems possible and is warranted to achieve potentially effective drug levels. Fostriecin has a short plasma half-life and longer duration of infusion should be considered. […]

[1] = 12.2 mg m-2, 3 patients/8 courses
[2] = 20 mg m-2, 2 patients/4 courses
[3] = one patient at 20 mg m-2 after course 2

C[C@@](O)(/C=C/[C@H]1CC=CC(=O)O1)[C@@H](C[C@@H](O)\C=C/C=C\C=C\CO)OP(=O)(O)O [fostriecin]
11: number of patients with nausea/vomiting (grade 1-2) during course 1 (20 patients) | number of courses with fever > 38C (grade 2) (human, in vivo, intravenous)
2: CTC-grade 1 GGT: courses causing toxicity, all full-dose courses [1] | CTC-grade 2 GGT: courses causing toxicity, all full-dose courses [1] | CTC-grade 2 bilirubin: patients developing toxicity in first course [1] | CTC-grade 2 creatinine: patients developing toxicity in first course [1] | CTC-grade 3 ALT: patients developing toxicity in first course [1] | CTC-grade 3 GGT: courses causing toxicity, all full-dose courses [1] | CTC-grade 1 ALP: courses causing toxicity, all full-dose courses [2] | CTC-grade 1 ALP: patients developing toxicity in first course [2] | CTC-grade 1 GGT: courses causing toxicity, all full-dose courses [2] | CTC-grade 2 ALT: courses causing toxicity, all full-dose courses [2] | CTC-grade 2 creatinine: courses causing toxicity, all full-dose courses [2] | CTC-grade 3 ALT: courses causing toxicity, all full-dose courses [2] | CTC-grade 3 AST: courses causing toxicity, all full-dose courses [2] | CTC-grade 3 GGT: courses causing toxicity, all full-dose courses [2] | maximum CTC grade of elevated serum creatinine (human, serum, intravenous)
≤ 3 weeks: time to resolution of ALT and AST elevations after drug administration (all patients)
Fourteen: number of patients with grade 1-2 anaemia (human, in vivo)
1: CTC-grade 1 ALP: patients developing toxicity in first course [1] | CTC-grade 1 GGT: patients developing toxicity in first course [1] | CTC-grade 1 creatinine: patients developing toxicity in first course [1] | CTC-grade 2 ALP: courses causing toxicity, all full-dose courses [1] | CTC-grade 2 ALT: courses causing toxicity, all full-dose courses [1] | CTC-grade 2 GGT: patients developing toxicity in first course [1] | CTC-grade 3 GGT: patients developing toxicity in first course [1] | CTC-grade 3 bilirubin: courses causing toxicity, all full-dose courses [1] | CTC-grade 4 ALT: courses causing toxicity, all full-dose courses [1] | CTC-grade 4 ALT: patients developing toxicity in first course [1] | CTC-grade 1 GGT: patients developing toxicity in first course [2] | CTC-grade 1 creatinine: courses causing toxicity, all full-dose courses [2] | CTC-grade 1 creatinine: patients developing toxicity in first course [2] | CTC-grade 2 ALT: patients developing toxicity in first course [2] | CTC-grade 2 AST: courses causing toxicity, all full-dose courses [2] | CTC-grade 2 creatinine: patients developing toxicity in first course [2] | CTC-grade 3 ALT: patients developing toxicity in first course [2] | CTC-grade 3 AST: patients developing toxicity in first course [2] | CTC-grade 3 GGT: patients developing toxicity in first course [2]
3: CTC-grade 1 ALP: courses causing toxicity, all full-dose courses [1] | CTC-grade 2 AST: courses causing toxicity, all full-dose courses [1] | CTC-grade 2 creatinine: courses causing toxicity, all full-dose courses [1] | CTC-grade 3 AST: patients developing toxicity in first course [1]
17: number of patients with occasional increase of body temperature (human, in vivo, intravenous)
seven: number of patients with microscopic haematuria (grade 1) (doses 6.6 mg m-2 (and above)) | number of patients with transient proteinuria grade 1 (doses 10 mg m-2 (and above)) | number of patients with hyperglycaemia grade 1-2 and/or hypoglycaemia grade 1 (human, in vivo)
No leuco- or neutropenia: leuco- or neutropenia (human, in vivo)
3 days: day of serum creatinine peak (median)
28 g/L: serum albumin (hypoalbuminaemia) [3]
0: CTC-grade 1 ALT: courses causing toxicity, all full-dose courses [1] | CTC-grade 1 ALT: patients developing toxicity in first course [1] | CTC-grade 1 AST: courses causing toxicity, all full-dose courses [1] | CTC-grade 1 AST: patients developing toxicity in first course [1] | CTC-grade 2 ALP: patients developing toxicity in first course [1] | CTC-grade 2 ALT: patients developing toxicity in first course [1] | CTC-grade 2 AST: patients developing toxicity in first course [1] | CTC-grade 3 bilirubin: patients developing toxicity in first course [1] | CTC-grade 1 ALT: courses causing toxicity, all full-dose courses [2] | CTC-grade 1 ALT: patients developing toxicity in first course [2] | CTC-grade 1 AST: courses causing toxicity, all full-dose courses [2] | CTC-grade 1 AST: patients developing toxicity in first course [2] | CTC-grade 2 AST: patients developing toxicity in first course [2] | CTC-grade 2 GGT: courses causing toxicity, all full-dose courses [2] | CTC-grade 2 GGT: patients developing toxicity in first course [2]
33: number of courses with nausea/vomiting (grade 1-2) (of the 42 courses at full dose)
3.5 days: median duration of grade 3 ALT (range 1-9 days)
Eight: number of patients with mild fatigue (grade 1-2) (during drug administration and the week thereafter)
six: number of patients with fever > 38C (grade 2) (human, in vivo)
not affected: PT, fibrinogen, anti-thrombin III and cholinesterase levels (six patients (13 courses) at 10-20 mg m-2, days 0 and 5)
one: number of patients with dose-limiting ALT elevation (grade 3 persisting > 7 days) (20 mg m-2) | number of patients with reversible thrombocytopenia (grade 2) (20 mg m-2) | number of patients with transient proteinuria grade 2 (doses 10 mg m-2 (and above)) | number of patients with fever > 39C (human, in vivo) | number of patients with grade 2 hyponatraemia (human, in vivo) | number of patients with grade 2 oedema (human, in vivo)
has not been reached: maximum tolerated dose (MTD) (escalation stopped at 20 mg m-2)
2.5 days: day of ALT peak per course (median)
4: CTC-grade 3 AST: courses causing toxicity, all full-dose courses [1] | maximum CTC grade of elevated liver transaminases (human, blood, intravenous)
three: number of patients with grade 2 LDH increases (human, in vivo)
14: number of patients with increase of body temperature during course 1 (human, in vivo, intravenous, 1 course (days 1-5, 4-week interval))
four: number of patients with reversible increases of bilirubin (human, in vivo)
3.3 g 24 h-1: maximum transient proteinuria [3]
1-2 weeks: time to resolution of renal toxicities after last dose of each course (human, in vivo, intravenous)
6: CTC-grade 2 bilirubin: courses causing toxicity, all full-dose courses [1] | CTC-grade 3 ALT: courses causing toxicity, all full-dose courses [1]
5: CTC-grade 1 creatinine: courses causing toxicity, all full-dose courses [1]

Source: article PMC2362650, “Phase I and pharmacokinetic study of the topoisomerase II catalytic inhibitor fostriecin” (British Journal of Cancer, 1999)
